Measured values reported in PubChem BioAssay AID652 (University of Pittsburgh Molecular Library Screening Center, 2007).

Biological target: Gag-Pol polyprotein (Human immunodeficiency virus type 1 group M subtype B (isolate HXB2)) (UniProt P04585)
Assay: concentration-response of HIV-1 RNase H blockers – biochemical, probe assessment, dose response (AID 652)
Settings: HIV-1 RT RNase H enzymatic assay; for inhibition: at 50 µM, stronger effect = higher value

SMILES	inhibition [%]	IC50 [µM]
Cc1ccc(-n2c(N)c(C(=O)N3CCN(C)CC3)sc2=S)cc1	53.5	
C=CCn1c(SCC(=O)NC(=O)NCc2ccco2)nc2sc(C)c(C)c2c1=O	83.8	
CCOC(=O)c1sc(=S)n2c1[nH]c(=O)c1ccc(C(=O)OC)cc12	99.7	
COc1ccc(OC)c(Nc2nc(-c3ccc(O)c(O)c3)cs2)c1	97.8	
CCCN(CCC)S(=O)(=O)c1ccc(C(=O)Nc2nnc(-c3cccc(OC)c3)o2)cc1	87.4	
COC(=O)c1ccc2c(c1)N(Cc1nc(-c3cccc(C)c3)oc1C)C(=O)C1CCCN21 (stereo not drawn)	78.1	
Cc1cc(NC(=O)CSc2ccc(-c3nc4cc(C)c(C)cc4[nH]3)cn2)no1	83	
COc1ccc(-n2nc3cc(C)c(NC(=O)CC(C)C)cc3n2)cc1	93.4	8.06
CN1CCN(C(=O)c2sc(=S)n(-c3ccccc3)c2N)CC1	73.1	
O=C(NCCc1ccccc1)c1c(O)c2cccc3c2n(c1=O)CC3	67.7	
COc1cc(N=c2ssnc2Cl)cc(OC)c1OC	78.8	
COC(=O)c1ccccc1NC(=O)c1sc(=S)n(C)c1N	101	
Cc1cc(C)c2c(=O)n(CC(=O)N3CCC(N4CCCCC4)CC3)sc2n1	60.1	
COC(=O)c1ccc2c(=O)n(Cc3ccco3)c(SCC(=O)Nc3ccccc3Cl)nc2c1	92.2	
CCOc1ccc(N2Cc3ccccc3C2)cc1	80	7.36
O=S(=O)(c1ccc(S(=O)(=O)N2CCN(C/C=C/c3ccccc3)CC2)cc1)N1CCCC1	96.9	
CCCCn1c(CN2C(=O)c3ccccc3C2=O)nc2ccccc2c1=O	98	12.4
O=C(CSc1nc2c([nH]c3ccccc32)c(=O)n1-c1cccc(Cl)c1)N1CCOCC1	82.5	23.4
CC(Cc1ccc(O)c(O)c1)C(C)Cc1ccc(O)c(O)c1 (stereo not drawn)	99	
Cc1nn(CCc2nc(-c3ccco3)cs2)c2[nH]c(=O)cc(C(F)(F)F)c12	97.6	
S=C(Nc1ccccn1)c1ccccn1	85.8	4.96

SMILES	inhibition [%]	IC50 [µM]
CCCCC[C@H](O)/C=C/[C@H]1C=CC(=O)[C@@H]1C/C=C\CCCC(=O)O	101	
Cc1sc(NC(=O)c2oc3ccccc3c2C)c(C#N)c1C	90.3	
CCOC(=O)N1CCc2c(sc3c2C(=O)NC(c2ccc(-c4ccc(Cl)cc4)o2)N3)C1 (stereo not drawn)	94.3	
CCCc1cc(C(N)=O)c(NC(=O)C2CCCO2)s1 (stereo not drawn)	98.3	
COC(=O)c1ccccc1NC(=O)c1ccc2c(c1)C(=O)N(Cc1ccco1)C2=O	93.3	
C=CCn1c(N)c(C(=O)NCCC2=CCCCC2)sc1=S	85.9	
CCN(CC)C1=CC(=O)OC12CCCCC2	65.8	42.8
COCCSc1ccccc1C(=O)Nc1cc(C)on1	65.1	
CCOC(=O)C1=C(C)N=c2s/c(=C3\C(=O)Nc4ccccc43)c(=O)n2C1c1ccc2c(c1)OCO2 (stereo not drawn)	83.8	
O=C(NC(=O)c1ccc(Cl)cc1)Nc1cc(N2CCCCC2)ncn1	97.4	
CCC1(C)Cc2c(sc3c2c(=O)n(C)c2nnc(SCc4ccc5c(c4)OCO5)n32)CO1 (stereo not drawn)	96.2	
COc1cc(C(=O)Nc2oc(-c3ccccc3)c(-c3ccccc3)c2C#N)cc(OC)c1OC	94	
CC(=O)C(C(C)=O)c1c(Cl)c(O)c(O)c2c(C(=O)c3ccccc3)coc12	93.1	
O=c1[nH]c(=O)n(-c2ccc(F)cc2)c(O)c1C=Nc1ccccc1N1CCCC1	83.7	
CC1CCN(S(=O)(=O)c2ccc(NC(=O)Cn3nnc(-c4ccccc4)n3)cc2)CC1	61.5	
CC(C)Sc1nc2sc3c(c2c2nnc(SCC(=O)NCc4ccco4)n12)CCCC3	85.1	
CCOC(=O)C(C(C)=O)c1c(Br)c(O)c(O)c2c(C(=O)c3ccc(C)cc3)coc12 (stereo not drawn)	86.7	
c1ccc(Cc2nn3c(Cn4cnc5ccccc54)nnc3s2)cc1	91.2	
Cc1cccc(-c2nsc(SCC(=O)Nc3nccs3)n2)c1	97.3	
COc1ccc(C2C(C#N)=C(N)N3C(=C2C#N)Sc2ccccc23)cc1 (stereo not drawn)	92	3.35
